Consider one molecule from patent publication US9517223B2, “Methods to treat neurodegenerative diseases” (Children's Medical Center Corporation, priority 2012, dated 2016).

The conditions of data set [1]: mice, 10 mg/kg IP injection for several weeks; cited from earlier work.
Data set [2] deals with ALS patient-derived motor neurons (39b). Nature of the data set: Extracellular MEA recording of spontaneous firing, SOD1 A4V ALS motor neurons. Conditions: retigabine 10 μM; two additional MEAs from separate differentiations.

As to `CCOC(=O)Nc1ccc(NCc2ccc(F)cc2)cc1N` [Retigabine], the side effects entry in data set [1] is recorded as “without apparent side effects”. Also, the “percentage of active neurons blocked (spontaneous firing)” value in data set [2] amounted to 100%.
